Reference: patent publication US6737383B1, “Herbicidal oxadiazolidines” (priority 1999, dated 2004)

Experiments:
blackgrass = assay: Test B pre/postemergence blackgrass; format: in vivo, Alopecurus myosuroides
In short: (§1)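 Herbicidal effect was estimated by eye on a ten-point control scale after plants spent twelve to sixteen days in a greenhouse following soil or foliar treatment. Foliar sprays targeted plants at one to four leaves; all doses were formulated in a non-phytotoxic solvent with surfactant.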

cocklebur = assay: Test B pre/postemergence cocklebur; format: in vivo, Xanthium strumarium
In short: as §1

corn = assay: Test B pre/postemergence corn; format: in vivo, Zea mays
In short: as §1

crabgrass = assay: Test B pre/postemergence crabgrass; format: in vivo, Digitaria sanguinalis
In short: as §1

giant foxtail = assay: Test B pre/postemergence giant foxtail; format: in vivo, Setaria faberii
In short: as §1

morningglory = assay: Test B pre/postemergence morningglory; format: in vivo, Ipomoea hederacea
In short: as §1

pigweed = assay: Test B pre/postemergence pigweed; format: in vivo, Amaranthus retroflexus
In short: as §1

rape = assay: Test B pre/postemergence rape; format: in vivo, Brassica napus
In short: as §1

soybean = assay: Test B pre/postemergence soybean; format: in vivo, Glycine max
In short: as §1

sugar beet = assay: Test B pre/postemergence sugar beet; format: in vivo, Beta vulgaris
In short: as §1

velvetleaf = assay: Test B pre/postemergence velvetleaf; format: in vivo, Abutilon theophrasti
In short: as §1

wheat = assay: Test B pre/postemergence wheat; format: in vivo, Triticum aestivum
In short: as §1

purple nutsedge = assay: Test B pre/postemergence purple nutsedge; format: in vivo, Cyperus rotundus
In short: as §1

rice = assay: Test B flood test rice; format: in vivo, Oryza sativa
In short: (§2)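 Each value is a visual injury score relative to controls, with 10 meaning complete control and 0 no effect. Evaluation took place twelve to sixteen days after the 2-leaf-stage plants were treated and kept in the greenhouse.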

smallflower flatsedge = assay: Test B flood test smallflower flatsedge; format: in vivo, Cyperus difformis
In short: as §2

duck salad = assay: Test B flood test duck salad; format: in vivo, Heteranthera limosa
In short: as §2

[1] = Preemergence, Rate 62 g/ha, scale of 0 to 10 where 0 is no effect and 10 is complete control
[2] = Preemergence, Rate 250 g/ha, scale of 0 to 10 where 0 is no effect and 10 is complete control
[3] = Preemergence, Rate 500 g/ha, scale of 0 to 10 where 0 is no effect and 10 is complete control
[4] = Rate 62 g/ha, Postemergence, scale 0 to 10 (0 no effect, 10 complete control)
[5] = Rate 125 g/ha, Postemergence, scale of 0 to 10 where 0 is no effect and 10 is complete control
[6] = Rate 125 g/ha, Preemergence, scale of 0 to 10 where 0 is no effect and 10 is complete control
[7] = Rate 250 g/ha, Postemergence, scale of 0 to 10 where 0 is no effect and 10 is complete control
[8] = Rate 500 g/ha, Postemergence, scale 0 to 10, 0 no effect, 10 complete control
[9] = Rate 62 g/ha, headed Pre-emergence (flood test species), scale 0 to 10 (0 no effect, 10 complete control)
[10] = Rate 125 g/ha, Pre-emergence, flood test species, scale 0 to 10 where 0 is no effect and 10 is complete control
[11] = Rate 250 g/ha, Pre-emergence, flood-test species, scale 0 to 10, 0 is no effect, 10 is complete control
[12] = Rate 500 g/ha, Pre-emergence, flood test species, scale 0 to 10 (0 no effect, 10 complete control)

## COCn1c(=O)on(C(=O)N(c2ccc(F)cc2)C(C)C)c1=O [Compound 293]
blackgrass; [1]
  Blackgrass plant response rating: 7
blackgrass; [2]
  Blackgrass plant response rating: 9
blackgrass; [3]
  Plant response rating, Blackgrass: 9
blackgrass; [4]
  Blackgrass plant response rating: 5
blackgrass; [5]
  Blackgrass plant response rating: 9
blackgrass; [6]
  Blackgrass plant response rating: 7
blackgrass; [7]
  Plant response rating, Blackgrass: 9
blackgrass; [8]
  Blackgrass plant response rating: 9
cocklebur; [1]
  Cocklebur plant response rating: 0
cocklebur; [2]
  Cocklebur plant response rating: 0
cocklebur; [3]
  Plant response rating, Cocklebur: 0
cocklebur; [4]
  Cocklebur plant response rating: 0
cocklebur; [5]
  Cocklebur plant response rating: 0
cocklebur; [6]
  Cocklebur plant response rating: 0
cocklebur; [7]
  Plant response rating, Cocklebur: 0
cocklebur; [8]
  Cocklebur plant response rating: 0
corn; [1]
  Corn plant response rating: 0
corn; [2]
  Corn plant response rating: 9
corn; [4]
  Corn plant response rating: 0
corn; [5]
  Corn plant response rating: 0
corn; [6]
  Corn plant response rating: 0
corn; [7]
  Plant response rating, Corn: 0
corn; [8]
  Corn plant response rating: 3
crabgrass; [1]
  Crabgrass plant response rating: 1
crabgrass; [2]
  Crabgrass plant response rating: 8
crabgrass; [3]
  Plant response rating, Crabgrass: 8
crabgrass; [4]
  Crabgrass plant response rating: 6
crabgrass; [5]
  Crabgrass plant response rating: 8
crabgrass; [6]
  Crabgrass plant response rating: 3
crabgrass; [7]
  Plant response rating, Crabgrass: 9
Giant foxtail; [1]
  Giant foxtail plant response rating: 9
Giant foxtail; [2]
  Giant foxtail plant response rating: 9
Giant foxtail; [3]
  Plant response rating, Giant foxtail: 10
Giant foxtail; [4]
  Giant foxtail plant response rating: 5
Giant foxtail; [5]
  Giant foxtail plant response rating: 8
Giant foxtail; [6]
  Giant foxtail plant response rating: 9
Giant foxtail; [7]
  Plant response rating, Giant foxtail: 8
morningglory; [1]
  Morningglory plant response rating: 0
morningglory; [2]
  Morningglory plant response rating: 0
morningglory; [3]
  Plant response rating, Morningglory: 4
morningglory; [4]
  Morningglory plant response rating: 1
morningglory; [5]
  Morningglory plant response rating: 5
morningglory; [6]
  Morningglory plant response rating: 0
morningglory; [7]
  Plant response rating, Morningglory: 5
pigweed; [1]
  Redroot pigweed plant response rating: 6
pigweed; [2]
  Redroot pigweed plant response rating: 10
pigweed; [3]
  Plant response rating, Redroot pigweed: 10
pigweed; [4]
  Redroot pigweed plant response rating: 0
pigweed; [5]
  Redroot pigweed plant response rating: 2
pigweed; [6]
  Redroot pigweed plant response rating: 8
pigweed; [7]
  Plant response rating, Redroot pigweed: 2
rape; [1]
  Rape plant response rating: 0
rape; [2]
  Rape plant response rating: 8
rape; [3]
  Plant response rating, Rape: 10
rape; [4]
  Rape plant response rating: 0
rape; [5]
  Rape plant response rating: 0
rape; [6]
  Rape plant response rating: 6
rape; [7]
  Plant response rating, Rape: 0
soybean; [1]
  Soybean plant response rating: 0
soybean; [2]
  Soybean plant response rating: 2
soybean; [3]
  Plant response rating, Soybean: 2
soybean; [4]
  Soybean plant response rating: 1
soybean; [5]
  Soybean plant response rating: 2
soybean; [6]
  Soybean plant response rating: 0
soybean; [7]
  Plant response rating, Soybean: 2
Sugar beet; [1]
  Sugarbeets plant response rating: 0
Sugar beet; [2]
  Sugarbeets plant response rating: 4
Sugar beet; [3]
  Plant response rating, Sugarbeets: 8
Sugar beet; [4]
  Sugarbeets plant response rating: 0
Sugar beet; [5]
  Sugarbeets plant response rating: 0
Sugar beet; [6]
  Sugarbeets plant response rating: 4
Sugar beet; [7]
  Plant response rating, Sugarbeets: 3
velvetleaf; [1]
  Velvetleaf plant response rating: 4
velvetleaf; [2]
  Velvetleaf plant response rating: 7
velvetleaf; [3]
  Plant response rating, Velvetleaf: 8
velvetleaf; [4]
  Velvetleaf plant response rating: 0
velvetleaf; [5]
  Velvetleaf plant response rating: 2
velvetleaf; [6]
  Velvetleaf plant response rating: 4
velvetleaf; [7]
  Plant response rating, Velvetleaf: 2
wheat; [1]
  Wheat plant response rating: 2
wheat; [2]
  Wheat plant response rating: 8
wheat; [3]
  Plant response rating, Wheat: 9
wheat; [4]
  Wheat plant response rating: 2
wheat; [5]
  Wheat plant response rating: 6
wheat; [6]
  Wheat plant response rating: 7
wheat; [7]
  Plant response rating, Wheat: 7
Purple nutsedge; [1]
  Nutsedge plant response rating: 0
Purple nutsedge; [2]
  Nutsedge plant response rating: 7
Purple nutsedge; [4]
  Nutsedge plant response rating: 0
Purple nutsedge; [5]
  Nutsedge plant response rating: 3
Purple nutsedge; [6]
  Nutsedge plant response rating: 0
Purple nutsedge; [7]
  Plant response rating, Nutsedge: 8
rice; [9]
  Rice plant response rating: 0
rice; [10]
  Rice plant response rating: 0
rice; [11]
  Rice plant response rating: 3
rice; [12]
  Rice plant response rating: 5
Smallflower flatsedge; [9]
  S. Flatsedge plant response rating: 0
Smallflower flatsedge; [10]
  S. Flatsedge plant response rating: 0
Smallflower flatsedge; [11]
  S. Flatsedge plant response rating: 0
Smallflower flatsedge; [12]
  S. Flatsedge plant response rating: 0
Duck salad; [9]
  Ducksalad plant response rating: 0
Duck salad; [10]
  Ducksalad plant response rating: 0
Duck salad; [11]
  Ducksalad plant response rating: 0
Duck salad; [12]
  Ducksalad plant response rating: 0
